# Results as given in patent US8669072B2, “Oxadiazoline ligands for modulating the expression of exogenous genes via an ecdysone receptor complex” (Intrexon Corporation, priority 2003, dated 2014).
# How the values were obtained:
# [1] = molecular target: T1, Bombyx mori EcR (VBE) (Bombyx mori, UniProt P49881); test: Z3 assay: β-galactosidase reporter gene induction in HEK-293 clone Z3 (CVBE / 6XEcRE LacZ); assay type: cell-based; conditions: for fold induction at 33 µM: HEK293, 48 h, read-out: Fold Induction Average, Z3 assay; for Rel Max FI, Z3 assay: maximum fold induction relative to that of GS-E ligand; for Fold Induction Average, Z3 assay: 33 μM ligand, 48 h, RLU relative to DMSO
# T1 construct: expressed in transfected cells; host or cells: Human HEK-293 cells, retrovirally infected, clone Z3
# T1 sequence (P49881 86-606 limits assumed): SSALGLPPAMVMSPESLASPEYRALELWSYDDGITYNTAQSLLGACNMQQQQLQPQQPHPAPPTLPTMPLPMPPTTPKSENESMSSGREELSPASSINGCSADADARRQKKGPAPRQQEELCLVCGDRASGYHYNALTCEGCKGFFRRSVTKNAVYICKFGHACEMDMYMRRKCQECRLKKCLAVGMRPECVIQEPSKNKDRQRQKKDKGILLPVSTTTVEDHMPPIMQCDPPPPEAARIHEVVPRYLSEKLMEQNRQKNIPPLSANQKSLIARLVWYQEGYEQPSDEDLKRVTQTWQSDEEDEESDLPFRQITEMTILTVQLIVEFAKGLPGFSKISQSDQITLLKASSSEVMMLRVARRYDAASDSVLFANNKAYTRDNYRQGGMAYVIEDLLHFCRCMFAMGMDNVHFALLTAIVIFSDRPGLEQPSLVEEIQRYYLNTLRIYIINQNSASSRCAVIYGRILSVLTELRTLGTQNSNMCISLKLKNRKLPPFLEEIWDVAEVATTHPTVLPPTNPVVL
# T1 sequence (P19793 1-462 partner): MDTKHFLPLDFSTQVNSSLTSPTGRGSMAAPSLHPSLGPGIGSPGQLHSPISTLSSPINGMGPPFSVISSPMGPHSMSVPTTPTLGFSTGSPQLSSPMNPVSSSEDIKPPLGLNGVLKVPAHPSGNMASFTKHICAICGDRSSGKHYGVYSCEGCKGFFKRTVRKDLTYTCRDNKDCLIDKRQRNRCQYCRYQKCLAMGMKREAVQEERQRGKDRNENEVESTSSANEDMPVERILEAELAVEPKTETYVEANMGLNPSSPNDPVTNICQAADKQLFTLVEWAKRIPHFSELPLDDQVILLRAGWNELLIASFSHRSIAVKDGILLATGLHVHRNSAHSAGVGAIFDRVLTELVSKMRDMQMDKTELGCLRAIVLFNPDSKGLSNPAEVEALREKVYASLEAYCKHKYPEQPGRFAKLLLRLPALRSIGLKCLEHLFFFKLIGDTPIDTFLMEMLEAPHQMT
# [2] = molecular target: T2, GAL4 DBD-CfEcR(DEF)/VP16AD-MmRXRE (Choristoneura fumiferana, UniProt O77240); test: 13B3 assay: luciferase reporter gene induction in stable CHO clone 13B3; assay type: cell-based; conditions: for fold induction at 33.3 µM / Fold Induction Average, 13B3 assay: 48 h; for fold induction at 33.3 µM: read-out: Fold Induction Average, 13B3 assay; for Rel Max FI, 13B3 assay: maximum fold induction relative to that of GS-E ligand; for Fold Induction Average, 13B3 assay: 33/33.3 μM ligand, RLU relative to DMSO
# T2 construct: The wild-type D, E, and F domains from spruce budworm Choristoneura fumiferana EcR (“CfEcR-DEF”)
# Summary of the method: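 Stable CHO clone 13B3 co-expressing GAL4 DBD-CfEcR(DEF) and VP16AD-MmRXRE with a GAL4 RE-luciferase reporter; ligands from DMSO stocks diluted 300-fold. Luciferase read by luminescence 48 h after treatment, duplicate wells averaged. Fold induction = RLU treated/RLU DMSO; EC50 from three-parameter logistic fit.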
# [3] = system: WFN (white fly); test: Insect toxicity contact bioassay, WFN; assay type: in vivo; conditions: 150 ppm
# Protocol: (§1) The compound to be evaluated was dissolved in an appropriate solvent, usually a mix of acetone, methanol, and water. Test solutions were made by serial dilution of a stock test solution with acetone, methanol, and water. Initial evaluations were made at one or more concentrations on one or more of the following insects:
# (§2) Contact bioassays (green peach aphid, two-spotted spider mite, white fly) were conducted by applying a solution of the test compound to the inside surface of a Petri dish. The solution was allowed to air-dry, then each dish was infested and the larvae from each treatment were transferred to a bioassay tray. The trays were held for one to seven days, and the mortality rating was determined for each treatment.
# [4] = molecular target: CfEcR (CDEF)/CfUSP, GST fusion protein (Choristoneura fumiferana, UniProt O77240); test: CfEcR (CDEF)/CfUSP GST fusion protein assay; assay type: binding
# CfEcR (CDEF)/CfUSP, GST fusion protein, sequence (O77240 entry or part of it): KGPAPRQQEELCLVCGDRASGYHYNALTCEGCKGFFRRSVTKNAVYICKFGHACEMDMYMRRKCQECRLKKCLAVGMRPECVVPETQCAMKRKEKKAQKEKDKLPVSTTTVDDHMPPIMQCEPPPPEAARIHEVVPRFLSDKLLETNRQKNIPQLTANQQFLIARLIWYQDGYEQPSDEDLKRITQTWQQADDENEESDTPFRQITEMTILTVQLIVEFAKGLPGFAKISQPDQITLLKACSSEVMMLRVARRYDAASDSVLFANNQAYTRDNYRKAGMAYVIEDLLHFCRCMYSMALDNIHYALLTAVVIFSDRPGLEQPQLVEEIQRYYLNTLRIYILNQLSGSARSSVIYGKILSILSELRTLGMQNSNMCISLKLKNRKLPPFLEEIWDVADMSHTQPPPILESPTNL
# CfEcR (CDEF)/CfUSP, GST fusion protein, sequence (O76202 whole entry, further chain, the tested form may be a part): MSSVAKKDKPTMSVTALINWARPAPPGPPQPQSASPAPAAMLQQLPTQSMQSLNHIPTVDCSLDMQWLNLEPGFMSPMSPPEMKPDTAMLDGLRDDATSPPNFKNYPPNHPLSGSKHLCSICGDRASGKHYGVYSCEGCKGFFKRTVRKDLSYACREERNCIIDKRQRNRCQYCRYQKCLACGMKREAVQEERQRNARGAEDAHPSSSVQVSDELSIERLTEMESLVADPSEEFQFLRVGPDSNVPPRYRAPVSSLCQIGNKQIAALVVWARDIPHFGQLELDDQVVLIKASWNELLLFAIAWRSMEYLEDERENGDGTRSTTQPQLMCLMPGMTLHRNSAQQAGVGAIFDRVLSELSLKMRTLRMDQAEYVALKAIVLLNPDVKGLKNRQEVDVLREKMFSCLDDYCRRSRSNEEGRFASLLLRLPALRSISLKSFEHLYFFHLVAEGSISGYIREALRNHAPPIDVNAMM
# [5] = system: Tobacco Budworm; test: Insect toxicity bioassay, TBW; assay type: in vivo; conditions: 150 ppm
# Protocol: as §1
# (§3) Feeding bioassays were conducted in bioassay trays containing insect diet. Treatments were made by applying 50 μL of test solution to the surface of the diet in each of 5 wells. After the test solution dried, each well was infested with a single neonate larva. The trays were held for six days and then the mortality rating was determined for each treatment.
# Some of the tobacco budworm tests were conducted as follows. A test solution containing 600 ppm was made by dissolving a compound of the invention in a 1:1 acetone:methanol solution, then adding water to give a 5:5:90 acetone:methanol:water solution, and finally a surfactant was added at an equivalent of 7.37 g of surfactant per 100 L of test solution (1 ounce of surfactant per 100 gallons of test solution). Appropriate dilutions were prepared in water from the 600 ppm solution. A detached cotton leaf, Gossypium hirsutum was placed on moistened filter paper in a Petri dish (100×20 mms). The leaf was sprayed with the test solution using a rotating turntable sprayer and allowed to dry. The dish was infested with 10 first instar larvae of the tobacco budworm and covered with the lid. If the larvae were alive two days after treatment, fresh untreated cotton leaves were added. All treatments were maintained at 23.9-26.7° C. (75-80° F.) under fluorescent light in a well-ventilated room. Percent mortality was determined at four days after treatment.
# [6] = system: Beet Armyworm; test: Insect toxicity feeding bioassay, BAW; assay type: in vivo; conditions: 150 ppm
# Protocol: as §1, §3
# [7] = system: MTA (two-spotted spider mite); test: Insect toxicity contact bioassay, MTA; assay type: in vivo; conditions: 150 ppm
# Protocol: as §1, §2
# [8] = system: Cabbage Looper; test: Insect toxicity feeding bioassay, CL; assay type: in vivo; conditions: 150 ppm
# Protocol: as §1, §3
SMILES,EC50 [1] [µM],fold induction at 33 µM [1],"Rel Max FI, Z3 assay [1]",EC50 [2] [µM],fold induction at 33.3 µM [2],"Rel Max FI, 13B3 assay [2]","Insect Toxicity % control @ 150 ppm, WFN [3] [% @ 150]","EC50 ([4]; GST fusion protein, read-out: CfEcR EC50) [µM]","Insect Toxicity % control @ 150 ppm, TBW [5] [% @ 150]","Insect Toxicity % control @ 150 ppm, BAW [6] [% @ 150]","Insect Toxicity % control @ 150 ppm, MTA [7]","Insect Toxicity % control @ 150 ppm, CL [8] [% @ 150]","Fold Induction Average, Z3 assay [1]","Fold Induction Average, 13B3 assay [2]",CfEcR % @ 1 uM [4] [% @ 1 uM]
CCOC(=O)CCC(=O)NN1C(c2cc(C)cc(C)c2)=NOC1(C)CC (stereo not drawn) [RG-120126],> 50,2.4,0.04,> 33.3,0.4,0,79,0.136,0,0,0% @ 150,0,–,–,–
CC1(C)ON=C(c2cccc(C(F)(F)F)c2)N1NC(=O)Nc1ccccc1 [RG-120001],–,–,–,–,–,–,0,–,0,80,0% @ 150,20,0.3,3.3,–
COc1ccc(C2=NOC(C)(C)N2NC(=O)c2ccccc2)c(OC)c1 [RG-120096],> 50,0.7,0,> 33.3,0.2,0,55,–,0,0,74 @ 150%,60,–,–,–
CCc1c(OC)cccc1C(=O)NN1C(c2cc(C)cc(C)c2)=NOC12CCOCC2 [RG-120008],–,–,–,–,–,–,–,–,–,–,–,–,567.3,–,81
CC1(C)ON=C(c2cccc(C(F)(F)F)c2)N1NC(=O)c1ccccc1 [RG-120015],–,–,–,–,–,–,0,–,0,80,0% @ 150,0,0.8,–,–
CCc1ccc(C(=O)NN2C(c3ccc(Cl)cc3)=NOC2(C)C)cc1 [RG-120035],–,9.1,–,–,1.2,–,0,–,0,40,0% @ 150,100,–,–,–
Cc1cc(C)cc(C2=NOC3(CCCC3)N2NC(=O)c2cc3ccccc3s2)c1 [RG-120152],–,–,–,–,–,–,–,–,–,–,–,–,59.9,264.3,92
